Legend:
Assay in all cases: Kinase Profiling (KINOMEscan)
Format in all cases: binding
[1] = target: 456 kinases (of these 395 non-mutant kinases) (Homo sapiens, UniProt Q9Y6E0); conditions: MST3; 10 μM
[2] = target: 456 kinases (of these 395 non-mutant kinases) (Homo sapiens, UniProt O14578); conditions: CIT; 10 μM
[3] = target: 456 kinases (of these 395 non-mutant kinases) (Homo sapiens, UniProt P51957); conditions: NEK4; 10 μM
[4] = target: 456 kinases (of these 395 non-mutant kinases) (Homo sapiens, UniProt Q99558); conditions: NIK; 10 μM
[5] = target: 456 kinases (of these 395 non-mutant kinases) (Homo sapiens, UniProt Q02156); conditions: PRKCE; 10 μM
[6] = target: 456 kinases (of these 395 non-mutant kinases) (Homo sapiens, UniProt P00519, Q252H); conditions: 10 μM
[7] = target: 456 kinases (of these 395 non-mutant kinases) (Homo sapiens, UniProt Q9H1R3); conditions: MYLK2; 10 μM
[8] = target: 456 kinases (of these 395 non-mutant kinases) (Homo sapiens, UniProt P21709); conditions: EPHA1; 10 μM
[9] = target: 456 kinases (of these 395 non-mutant kinases) (Homo sapiens, UniProt P80192); conditions: MLK1; 10 μM
[10] = target: 456 kinases (of these 395 non-mutant kinases) (Homo sapiens, UniProt Q6ZN16); conditions: MAP3K15; 10 μM
[11] = target: 456 kinases (of these 395 non-mutant kinases) (Homo sapiens, UniProt P50750); conditions: CDK9; 10 μM
[12] = target: 456 kinases (of these 395 non-mutant kinases) (Homo sapiens, UniProt O00750); conditions: PIK3C2B; 10 μM
[13] = target: 456 kinases (of these 395 non-mutant kinases) (Homo sapiens, UniProt P36897); conditions: TGFBR1; 10 μM
[14] = target: 456 kinases (of these 395 non-mutant kinases) (Homo sapiens, UniProt P00519, E255K); conditions: ABL1(E255K)-phosphorylated; 10 μM
[15] = target: 456 kinases (of these 395 non-mutant kinases) (Homo sapiens, UniProt Q9H0K1); conditions: SIK2; 10 μM
[16] = target: 456 kinases (of these 395 non-mutant kinases) (Homo sapiens, UniProt Q8N568); conditions: DCAMKL2; 10 μM
[17] = target: 456 kinases (of these 395 non-mutant kinases) (Homo sapiens, UniProt Q8WU08); conditions: YANK1; 10 μM
[18] = target: 456 kinases (of these 395 non-mutant kinases) (Homo sapiens, UniProt P04626); conditions: ERBB2; 10 μM
[19] = target: 456 kinases (of these 395 non-mutant kinases) (Homo sapiens, UniProt P54760); conditions: EPHB4; 10 μM
[20] = target: 456 kinases (of these 395 non-mutant kinases) (Homo sapiens, UniProt P10721, D816V); conditions: KIT(D816V); 10 μM
[21] = target: 456 kinases (of these 395 non-mutant kinases) (Homo sapiens, UniProt P46734); conditions: MEK3; 10 μM
[22] = target: 456 kinases (of these 395 non-mutant kinases) (Homo sapiens, UniProt Q16832); conditions: DDR2; 10 μM
[23] = target: 456 kinases (of these 395 non-mutant kinases) (Homo sapiens, UniProt Q16620); conditions: TRKB; 10 μM
[24] = target: 456 kinases (of these 395 non-mutant kinases) (Homo sapiens, UniProt P49760); conditions: CLK2; 10 μM
[25] = target: 456 kinases (of these 395 non-mutant kinases) (Homo sapiens, UniProt O75582); conditions: 10 μM
[26] = target: 456 kinases (of these 395 non-mutant kinases) (Homo sapiens, UniProt P30530); conditions: AXL; 10 μM
[27] = target: 456 kinases (of these 395 non-mutant kinases) (Homo sapiens, UniProt P45984); conditions: JNK2; 10 μM
[28] = target: 456 kinases (of these 395 non-mutant kinases) (Homo sapiens, UniProt Q9Y2K2); conditions: QSK; 10 μM
[29] = target: 456 kinases (of these 395 non-mutant kinases) (Homo sapiens, UniProt O96017); conditions: CHEK2; 10 μM
[30] = target: 456 kinases (of these 395 non-mutant kinases) (Homo sapiens, UniProt P29323); conditions: EPHB2; 10 μM
[31] = target: 456 kinases (of these 395 non-mutant kinases) (Homo sapiens, UniProt Q9P289); conditions: MST4; 10 μM
[32] = target: 456 kinases (of these 395 non-mutant kinases) (Homo sapiens, UniProt Q00526); conditions: CDK3; 10 μM

Sequence of 456 kinases (of these 395 non-mutant kinases) (Homo sapiens, UniProt Q16832) (Q16832 22-855 limits assumed, change not shown): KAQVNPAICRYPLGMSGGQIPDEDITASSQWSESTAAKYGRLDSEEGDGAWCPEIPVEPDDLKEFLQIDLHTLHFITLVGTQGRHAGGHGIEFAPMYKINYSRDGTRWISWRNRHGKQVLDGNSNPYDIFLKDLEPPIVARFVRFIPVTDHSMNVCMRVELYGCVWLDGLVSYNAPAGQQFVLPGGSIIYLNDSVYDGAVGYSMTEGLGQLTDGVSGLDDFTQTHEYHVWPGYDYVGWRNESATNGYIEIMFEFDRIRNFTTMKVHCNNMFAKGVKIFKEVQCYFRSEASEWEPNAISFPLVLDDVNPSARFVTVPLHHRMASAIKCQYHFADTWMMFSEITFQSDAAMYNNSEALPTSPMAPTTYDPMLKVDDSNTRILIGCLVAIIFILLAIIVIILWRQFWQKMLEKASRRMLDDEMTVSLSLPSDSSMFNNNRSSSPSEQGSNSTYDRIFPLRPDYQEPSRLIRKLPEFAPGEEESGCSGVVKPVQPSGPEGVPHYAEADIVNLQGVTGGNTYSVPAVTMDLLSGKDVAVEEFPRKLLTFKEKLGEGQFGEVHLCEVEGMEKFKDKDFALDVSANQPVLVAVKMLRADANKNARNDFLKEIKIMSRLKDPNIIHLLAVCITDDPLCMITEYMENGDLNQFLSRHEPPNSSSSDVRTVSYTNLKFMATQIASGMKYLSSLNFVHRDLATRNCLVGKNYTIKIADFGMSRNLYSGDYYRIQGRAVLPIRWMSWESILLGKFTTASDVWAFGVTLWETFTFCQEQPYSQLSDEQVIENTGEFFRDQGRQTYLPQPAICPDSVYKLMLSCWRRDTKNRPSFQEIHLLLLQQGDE
Sequence of 456 kinases (of these 395 non-mutant kinases) (Homo sapiens, UniProt Q16620) (Q16620 32-822 limits assumed, change not shown): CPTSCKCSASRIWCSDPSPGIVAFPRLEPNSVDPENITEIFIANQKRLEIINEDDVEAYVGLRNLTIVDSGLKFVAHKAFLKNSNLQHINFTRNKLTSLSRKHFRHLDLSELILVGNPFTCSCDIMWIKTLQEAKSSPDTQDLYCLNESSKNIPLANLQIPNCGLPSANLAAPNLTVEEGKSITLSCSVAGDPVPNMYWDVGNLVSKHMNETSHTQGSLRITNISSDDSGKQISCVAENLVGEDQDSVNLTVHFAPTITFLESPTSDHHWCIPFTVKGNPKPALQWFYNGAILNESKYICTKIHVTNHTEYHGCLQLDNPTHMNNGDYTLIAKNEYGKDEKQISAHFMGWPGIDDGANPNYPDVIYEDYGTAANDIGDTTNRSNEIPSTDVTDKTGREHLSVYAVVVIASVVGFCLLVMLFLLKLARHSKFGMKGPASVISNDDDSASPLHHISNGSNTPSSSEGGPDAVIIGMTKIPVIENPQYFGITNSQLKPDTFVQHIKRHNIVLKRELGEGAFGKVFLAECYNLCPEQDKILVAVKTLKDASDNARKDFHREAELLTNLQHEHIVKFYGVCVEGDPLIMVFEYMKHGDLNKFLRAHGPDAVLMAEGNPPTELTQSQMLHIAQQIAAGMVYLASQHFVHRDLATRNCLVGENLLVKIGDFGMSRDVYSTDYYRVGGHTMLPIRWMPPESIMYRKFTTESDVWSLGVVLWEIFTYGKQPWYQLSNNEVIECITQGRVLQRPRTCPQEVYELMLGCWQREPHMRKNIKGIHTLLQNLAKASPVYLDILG
Sequence of 456 kinases (of these 395 non-mutant kinases) (Homo sapiens, UniProt P29323) (P29323 19-1055 limits assumed, change not shown): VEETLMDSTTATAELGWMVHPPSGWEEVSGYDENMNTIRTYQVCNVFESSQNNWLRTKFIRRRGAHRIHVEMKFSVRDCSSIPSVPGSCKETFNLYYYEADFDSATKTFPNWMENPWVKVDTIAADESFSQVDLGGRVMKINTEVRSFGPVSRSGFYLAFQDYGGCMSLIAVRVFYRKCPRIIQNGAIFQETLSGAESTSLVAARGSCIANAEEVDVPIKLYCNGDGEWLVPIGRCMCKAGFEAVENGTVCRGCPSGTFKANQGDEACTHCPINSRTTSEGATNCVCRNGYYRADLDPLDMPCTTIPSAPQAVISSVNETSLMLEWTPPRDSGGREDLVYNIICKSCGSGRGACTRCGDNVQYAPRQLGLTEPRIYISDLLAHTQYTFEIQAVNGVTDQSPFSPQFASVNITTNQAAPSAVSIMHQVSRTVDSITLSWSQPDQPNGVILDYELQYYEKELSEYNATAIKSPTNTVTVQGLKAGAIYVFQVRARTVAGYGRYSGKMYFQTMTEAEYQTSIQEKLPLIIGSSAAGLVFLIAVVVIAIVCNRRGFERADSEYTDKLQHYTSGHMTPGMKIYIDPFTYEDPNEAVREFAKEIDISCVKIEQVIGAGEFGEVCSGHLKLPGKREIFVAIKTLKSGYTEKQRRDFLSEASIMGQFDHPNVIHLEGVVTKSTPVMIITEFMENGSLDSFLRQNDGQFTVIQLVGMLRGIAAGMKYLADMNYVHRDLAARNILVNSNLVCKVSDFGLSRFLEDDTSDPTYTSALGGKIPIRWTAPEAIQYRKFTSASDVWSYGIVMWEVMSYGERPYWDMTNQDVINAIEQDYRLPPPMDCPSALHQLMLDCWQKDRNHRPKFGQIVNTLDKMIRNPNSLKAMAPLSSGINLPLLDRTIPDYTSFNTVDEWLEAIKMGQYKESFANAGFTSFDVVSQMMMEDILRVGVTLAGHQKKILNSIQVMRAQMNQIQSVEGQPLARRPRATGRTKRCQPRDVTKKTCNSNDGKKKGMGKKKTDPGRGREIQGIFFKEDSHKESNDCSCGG
Sequence of 456 kinases (of these 395 non-mutant kinases) (Homo sapiens, UniProt P04626) (P04626 23-1255 limits assumed, change not shown): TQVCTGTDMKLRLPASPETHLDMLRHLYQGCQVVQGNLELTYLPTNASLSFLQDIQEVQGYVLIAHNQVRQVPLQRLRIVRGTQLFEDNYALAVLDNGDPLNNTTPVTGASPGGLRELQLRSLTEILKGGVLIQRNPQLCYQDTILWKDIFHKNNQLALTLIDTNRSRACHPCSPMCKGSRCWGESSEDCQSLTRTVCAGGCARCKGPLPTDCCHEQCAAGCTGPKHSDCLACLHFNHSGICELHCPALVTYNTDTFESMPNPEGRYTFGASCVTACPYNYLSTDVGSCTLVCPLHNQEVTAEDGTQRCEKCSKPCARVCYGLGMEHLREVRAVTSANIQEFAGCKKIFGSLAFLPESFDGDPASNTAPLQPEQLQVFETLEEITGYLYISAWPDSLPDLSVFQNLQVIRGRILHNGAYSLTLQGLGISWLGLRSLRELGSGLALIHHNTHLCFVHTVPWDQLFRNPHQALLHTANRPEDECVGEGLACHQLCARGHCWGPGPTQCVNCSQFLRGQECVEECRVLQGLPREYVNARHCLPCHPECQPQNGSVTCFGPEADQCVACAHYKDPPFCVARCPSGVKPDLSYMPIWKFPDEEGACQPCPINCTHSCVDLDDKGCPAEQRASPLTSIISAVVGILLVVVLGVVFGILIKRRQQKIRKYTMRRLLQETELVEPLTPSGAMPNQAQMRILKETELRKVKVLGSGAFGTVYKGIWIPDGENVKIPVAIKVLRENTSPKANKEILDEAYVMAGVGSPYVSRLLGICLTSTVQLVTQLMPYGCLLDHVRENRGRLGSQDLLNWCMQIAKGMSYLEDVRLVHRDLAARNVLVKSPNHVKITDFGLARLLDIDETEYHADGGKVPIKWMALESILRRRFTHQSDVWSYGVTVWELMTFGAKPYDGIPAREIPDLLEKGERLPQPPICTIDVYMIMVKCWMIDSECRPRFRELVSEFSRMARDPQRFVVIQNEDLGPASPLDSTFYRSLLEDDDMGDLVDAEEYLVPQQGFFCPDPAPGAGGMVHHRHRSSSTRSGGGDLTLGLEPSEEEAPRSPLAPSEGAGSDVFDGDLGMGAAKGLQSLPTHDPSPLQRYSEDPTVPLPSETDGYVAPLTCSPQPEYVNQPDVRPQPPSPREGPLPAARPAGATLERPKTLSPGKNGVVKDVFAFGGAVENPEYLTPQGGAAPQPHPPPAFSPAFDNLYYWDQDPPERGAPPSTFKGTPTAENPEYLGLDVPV
Sequence of 456 kinases (of these 395 non-mutant kinases) (Homo sapiens, UniProt Q9P289) (Q9P289 2-416 limits assumed, change not shown): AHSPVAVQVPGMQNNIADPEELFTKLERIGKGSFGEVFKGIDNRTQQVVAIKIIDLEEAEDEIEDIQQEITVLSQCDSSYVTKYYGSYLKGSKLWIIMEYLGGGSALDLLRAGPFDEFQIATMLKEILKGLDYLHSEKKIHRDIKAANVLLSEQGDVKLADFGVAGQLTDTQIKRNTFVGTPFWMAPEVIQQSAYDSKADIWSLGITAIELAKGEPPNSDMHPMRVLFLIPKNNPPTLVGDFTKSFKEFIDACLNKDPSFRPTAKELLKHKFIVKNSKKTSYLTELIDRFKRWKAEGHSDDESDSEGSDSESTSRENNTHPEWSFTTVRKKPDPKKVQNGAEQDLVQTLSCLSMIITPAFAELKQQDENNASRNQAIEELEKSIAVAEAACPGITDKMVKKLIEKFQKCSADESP
Sequence of 456 kinases (of these 395 non-mutant kinases) (Homo sapiens, UniProt Q8WU08) (Q8WU08 2-396 limits assumed, change not shown): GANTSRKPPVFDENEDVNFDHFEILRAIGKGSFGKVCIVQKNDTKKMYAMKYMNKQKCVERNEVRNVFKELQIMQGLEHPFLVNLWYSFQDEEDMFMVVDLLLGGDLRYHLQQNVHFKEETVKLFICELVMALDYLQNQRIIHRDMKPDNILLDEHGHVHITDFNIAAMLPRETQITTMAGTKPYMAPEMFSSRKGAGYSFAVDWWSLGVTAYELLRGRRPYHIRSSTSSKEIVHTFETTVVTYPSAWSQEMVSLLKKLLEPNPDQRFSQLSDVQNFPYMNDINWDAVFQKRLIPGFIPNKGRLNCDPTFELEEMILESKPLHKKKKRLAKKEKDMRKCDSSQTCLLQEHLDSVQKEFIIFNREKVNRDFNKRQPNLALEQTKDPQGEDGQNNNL

Q: With `CCc1ccccc1NC(=O)c1c(C)nsc1Nc1cnc2cc(F)ccc2n1` [Example 20, N-(2-Ethylphenyl)-5-[(6-fluoroquinoxalin-2-yl)amino]-3-methyl-1,2-thiazole-4-carboxamide] as the compound, how does the “% Ctrl @ 10 μM” value [1] read?
A: 75 % Ctrl

Q: And the “% Ctrl @ 10 μM” value [2]?
A: 80 % Ctrl

Q: What about the “% Ctrl @ 10 μM” value [3] of the same compound?
A: 99 % Ctrl

Q: What about the “% Ctrl @ 10 μM” value [4] of the same compound?
A: 96 % Ctrl

Q: And the “% Ctrl @ 10 μM” value [5]?
A: 75 % Ctrl

Q: And the “% Ctrl @ 10 μM” value ([6]; ABL1(Q252H)-nonphosphorylated)?
A: 100 % Ctrl

Q: And the “% Ctrl @ 10 μM” value ([6]; ABL1(Q252H)-phosphorylated)?
A: 100 % Ctrl

Q: And the “% Ctrl @ 10 μM” value [7]?
A: 100 % Ctrl

Q: What about the “% Ctrl @ 10 μM” value [8] of the same compound?
A: 95 % Ctrl

Q: What about the “% Ctrl @ 10 μM” value [9] of the same compound?
A: 100 % Ctrl

Q: What about the “% Ctrl @ 10 μM” value [10] of the same compound?
A: 100 % Ctrl

Q: And the “% Ctrl @ 10 μM” value [11]?
A: 100 % Ctrl

Q: And the “% Ctrl @ 10 μM” value [12]?
A: 100 % Ctrl

Q: And the “% Ctrl @ 10 μM” value [13]?
A: 100 % Ctrl

Q: And the “% Ctrl @ 10 μM” value [14]?
A: 100 % Ctrl

Q: And the “% Ctrl @ 10 μM” value [15]?
A: 84 % Ctrl

Q: What about the “% Ctrl @ 10 μM” value [16] of the same compound?
A: 98 % Ctrl

Q: And the “% Ctrl @ 10 μM” value [17]?
A: 100 % Ctrl

Q: And the “% Ctrl @ 10 μM” value [18]?
A: 77 % Ctrl

Q: What about the “% Ctrl @ 10 μM” value [19] of the same compound?
A: 96 % Ctrl

Q: And the “% Ctrl @ 10 μM” value [20]?
A: 61 % Ctrl

Q: And the “% Ctrl @ 10 μM” value [21]?
A: 100 % Ctrl

Q: And the “% Ctrl @ 10 μM” value [22]?
A: 100 % Ctrl

Q: And the “% Ctrl @ 10 μM” value [23]?
A: 90 % Ctrl

Q: What about the “% Ctrl @ 10 μM” value [24] of the same compound?
A: 77 % Ctrl

Q: What about the “% Ctrl @ 10 μM” value ([25]; RPS6KA5(Kin.Dom.1-N-terminal)) of the same compound?
A: 100 % Ctrl

Q: And the “% Ctrl @ 10 μM” value ([25]; RPS6KA5(Kin.Dom.2-C-terminal))?
A: 100 % Ctrl

Q: What about the “% Ctrl @ 10 μM” value [26] of the same compound?
A: 90 % Ctrl

Q: What about the “% Ctrl @ 10 μM” value [27] of the same compound?
A: 100 % Ctrl

Q: And the “% Ctrl @ 10 μM” value [28]?
A: 91 % Ctrl

Q: And the “% Ctrl @ 10 μM” value [29]?
A: 100 % Ctrl

Q: And the “% Ctrl @ 10 μM” value [30]?
A: 77 % Ctrl

Q: And the “% Ctrl @ 10 μM” value [31]?
A: 100 % Ctrl

Q: And the “% Ctrl @ 10 μM” value [32]?
A: 100 % Ctrl

Source: patent US9682995B2, “Amino-substituted isothiazoles” (BAYER PHARMA AKTIENGESELLSCHAFT, priority 2013, dated 2017)
